Values quoted from earlier work, collected in patent US11325978B2, “Compositions and methods for treating beta-globinopathies” (priority 2018, dated 2022).

System: RIOK3
Details: collection of 72 inhibitors against 456 human kinases (Davis et al. 2011)

COc1cc(Nc2c(C#N)cnc3cc(OCCCN4CCN(C)CC4)c(OC)cc23)c(Cl)cc1Cl [bosutinib, Bosutinib]
inhibition of RIOK3 kinase activity: inhibit RIOK3 kinase activity
